{"source": "paper PMC12027149", "about": "(International Journal of Molecular Sciences, 2025)", "key": {"[1]": {"system": "SH-SY5Y cells", "assay": "Intracellular reactive oxygen species levels (H2-DCFDA probe)", "assay_type": "cell-based, human", "settings": "6 h treatment at LC50", "experimental": "Reactive oxygen species (ROS) production was determined by evaluating ROS levels after exposure to cathinones at concentrations corresponding to their LC50 for 6 h. SH-SY5Y cells were washed with 1× PBS and incubated with 100 µL of 2′,7′-dichlorodihydrofluorescein diacetate (H2-DCFDA) (20 µM) in medium without FBS, for 60 min at 37 °C in the dark. Subsequently, the cells were washed with 1× PBS (1×), and the cells were maintained for 30 min at room temperature in 100 µL of PBS. After this time, ROS levels were determined by measuring fluorescence (excitation wavelength (λ): 495 nm; emission λ: 527 nm). Ascorbic acid (A.A) (100 µg/mL) served as the negative control and, hydrogen peroxide (H2O2) (200 µM) was used as the positive control. Results were expressed as a percentage relative to the control. All data were derived from at least three independent experiments (n = 3) and presented as mean ± standard error of the mean (SEM)."}, "[2]": {"target": "T1, Acetylcholinesterase (AChE, EC 3.1.1.7) (Electrophorus electricus, UniProt O42275)", "T1 construct": "purchased Sigma-Aldrich", "T1 sequence (O42275 24-633)": "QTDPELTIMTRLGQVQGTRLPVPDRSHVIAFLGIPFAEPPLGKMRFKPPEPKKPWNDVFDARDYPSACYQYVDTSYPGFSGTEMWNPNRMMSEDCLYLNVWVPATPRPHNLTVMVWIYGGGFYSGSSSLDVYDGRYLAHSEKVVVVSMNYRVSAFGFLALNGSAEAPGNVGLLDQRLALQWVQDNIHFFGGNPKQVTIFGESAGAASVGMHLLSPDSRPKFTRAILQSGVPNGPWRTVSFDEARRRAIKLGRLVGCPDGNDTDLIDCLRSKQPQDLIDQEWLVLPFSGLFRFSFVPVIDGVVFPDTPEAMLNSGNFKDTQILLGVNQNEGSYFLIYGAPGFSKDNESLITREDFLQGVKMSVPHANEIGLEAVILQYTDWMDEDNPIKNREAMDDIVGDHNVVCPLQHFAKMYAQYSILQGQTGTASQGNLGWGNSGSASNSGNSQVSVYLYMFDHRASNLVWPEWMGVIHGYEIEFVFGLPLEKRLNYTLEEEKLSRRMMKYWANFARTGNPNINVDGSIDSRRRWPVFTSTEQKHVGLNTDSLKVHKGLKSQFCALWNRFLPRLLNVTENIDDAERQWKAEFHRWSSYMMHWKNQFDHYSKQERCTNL", "assay": "Acetylcholinesterase inhibition, modified Ellman colorimetric method", "assay_type": "biochemical", "settings": "for Hillslope: AChE inhibition dose–response curve; for LOAEL: AChE inhibition; for LOAEL / IC50: Ellman assay; for IC50: IC50, AChE inhibition, 0.03–2 mM, Hill fit", "experimental": "Acetylcholinesterase (AChE, EC 3.1.1.7) enzymatic activity was assessed using a modified version of Ellman’s colorimetric method, as described by Falé et al.. In this assay, a mixture of 325 μL of 50 mM Tris-HCl buffer (pH 8), 100 μL of a cathinone solution, and 25 μL of AChE (0.1 U/mL in 50 mM Tris–HCl buffer pH 8) were incubated. After a 15 min incubation period, 75 μL of AChI (0.33 mg/mL) was added to 475 μL of DTNB (dithiobis (2-nitrobenzoic acid)) (1.2 mg/mL in Tris–HCl buffer (pH 8) containing 0.1 M NaCl and 0.02 M MgCl2). A control reaction, representing 100% activity, was performed using the same volume of water instead of the cathinone solution. The initial velocity of the enzymatic reaction was measured at 405 nm for 5 min, with all assays carried out in duplicate. The percentage of AChE activity inhibition for different concentrations of cathinones [0.03–2 mM] was determined as the ratio of the initial velocity in the cathinone presence to the initial velocity of the control reaction. Experimental results were fitted to Hill’s sigmoidal dose–response non-linear regression model to determine IC50 values (cathinone concentration showing 50% inhibition), along with their confidence interval at the 95% confidence level ([CI]). The Hill slope coefficients that provide the steepest value of the slope of the dose–response curve and the minimum observable adverse effect concentration (LOAEL) for all cathinones were also determined."}, "[3]": {"system": "SH-SY5Y cells", "assay": "Mitochondrial membrane potential (JC-1 probe)", "assay_type": "cell-based, human", "settings": "6 h treatment at LC50, JC-1", "experimental": "Mitochondrial membrane potential (MMP) was estimated by using the JC-1 fluorescent probe (Molecular Probes, Eugene, OR, USA) as described in Silva et al., 2022 [65]. The formation of JC-1 aggregates (excitation λ: 490 nm; emission λ: 590 nm) and monomers (excitation λ: 490 nm; emission λ: 530 nm) was measured for 30 min using a plate reader (Bio-Tek Synergy plate reader, Bedfordshire, UK). Changes in MMP were calculated as the ratio between JC-1 monomers and aggregates and expressed as a percentage of the control. An FCCP (2.5 µM) and oligomycin A (1 mg/mL) conjugate solution was used as the positive control. All data were obtained from at least three independent experiments (n = 3) and were presented as mean ± standard error of the mean (SEM)."}, "[4]": {"system": "differentiated SH-SY5Y cells", "assay": "MTT cytotoxicity assay on differentiated SH-SY5Y cells", "assay_type": "cell-based, human", "settings": "lowest observed adverse effect level, differentiated SH-SY5Y, 24 h, MTT", "experimental": "(§1) The SH–SY5Y cell line (DSMZ code: ACC 209) was supplied by the German Collection of Microorganisms and the Cell Culture GmbH (DSMZ) biobank and was cultured according to the supplier’s information. Cells were grown in DMEM:F12 (Dulbecco’s Modified Eagle’s Medium/F12), supplemented with 10% fetal bovine serum (FBS) and 1% antibiotic–antimycotic in a humidified atmosphere with 5% CO2 at 37 °C. Subculture was performed according to biobank instructions when the cultures reached 80–85% of confluence.\n(§2) SH-SY5Y cells were trypsinized (trypsin/EDTA; 0.25%) and the cell suspension was seeded in 96-well plates at a density of 2 × 10^4 cells/well and incubated until reaching 80-85% confluence. Cells were differentiated to obtain a dopaminergic neuronal phenotype according to Ferreira et al. with slight modifications (Figure 10). To ensure reproducibility and optimal neuronal differentiation, cells were used between passages (15–25). Briefly, cells were seeded in complete DMEM:F12 medium containing 10 µM retinoic acid (RA) and 2.5% fetal bovine serum (FBS) and maintained for 4 days, with the medium changed on day 2. After this time, the medium was replaced by DMEM:F12 supplemented with 10 µM RA, 80 nM 12-O-tetradecanoylphorbol-13-acetate (TPA), and 2.5% FBS, and the cells were maintained for an additional 4 days (with the medium changed at day 6). The cytotoxicity assay was performed on day 8.\n(§3) The SH-SY5Y cells’ viability was evaluated after exposure for 24 h to […]. The 3-(4,5-dimethylthiazol-2-yl) − 2,5-diphenyltetrazolium bromide (MTT) colorimetric assay was performed following the methodology described by Joana Silva et al.. The experimental dose–response results were fitted to the Hill’s sigmoidal non-linear regression model. For each cathinone, the LC50 values (cathinone concentration showing 50% lethality) and their confidence interval at the 95% confidence level ([CI]) were determined. The Hill slope, also known as the Hill coefficient, which describes the steepness of a dose–response curve, and the minimum observable adverse effect concentration (LOAEL) were also determined for all cathinones."}, "[5]": {"assay": "MTT cytotoxicity assay on differentiated SH-SY5Y cells", "assay_type": "cell-based, human", "settings": "human, differentiated SH-SY5Y, 0.05–5 mM, MTT reduction assay, Hill fit, read-out: LC50", "experimental": "as §1, §2, §3"}}, "note": "Values joined by “and” are separate entries in the source; they are usually repeats but may differ in a detail not shown here. Equal values may be shown once."}
{"smiles": "CCN(CC)C(C)C(=O)c1cccc(Cl)c1", "note": "(racemic) [3-Cl-DEC (15), (R,S)-1-(3-chlorophenyl)-2-(diethylamino)propan-1-one]", "values": [{"measurement": "significant increase in ROS production compared to vehicle", "setting": "[1]", "result": "exception"}, {"measurement": "maximum inhibition of AChE among the tested concentrations", "setting": "[2]; 0.03 to 2 mM", "result": 87, "unit": "%"}, {"measurement": "Hillslope", "setting": "[2]", "result": 0.9}, {"measurement": "LOAEL", "setting": "[2]", "result": 0.063, "unit": "mM"}, {"measurement": "IC50", "setting": "[2]", "result": 300, "unit": "µM"}, {"measurement": "MMP depolarization", "setting": "[3]", "result": "more pronounced MMP depolarization than the other cathinones"}, {"measurement": "LOAEL", "setting": "[4]", "result": "1 mM and 1.0 mM"}, {"measurement": "CC50 at 24 h", "setting": "[5]", "result": 1200, "unit": "µM"}]}
{"smiles": "CC(NC(C)(C)C)C(=O)c1ccc(Cl)cc1", "note": "(racemic) [4-Cl-TBC (20), (R,S)-2-(tert-butylamino)-1-(4-chlorophenyl)propan-1-one]", "values": [{"measurement": "increase in ROS production compared to the vehicle", "setting": "[1]", "result": 30, "unit": "%"}, {"measurement": "Hillslope", "setting": "[2]", "result": 2.7}, {"measurement": "LOAEL", "setting": "[2]", "result": 0.500, "unit": "mM"}, {"measurement": "IC50", "setting": "[2]", "result": "~2000", "unit": "µM"}, {"measurement": "inhibition at 2000 µM", "setting": "[2]; highest tested concentration of 2 mM", "result": 48, "unit": "%"}, {"measurement": "LOAEL", "setting": "[4]", "result": 0.5, "unit": "mM"}, {"measurement": "CC50 at 24 h", "setting": "[5]", "result": 1300, "unit": "µM"}]}
